Reference: patent US12076323B2, “Treatment of hair loss disorders with deuterated JAK inhibitors” (Sun Pharmaceutical Industries, Inc., priority 2016, dated 2024)
Read-outs that look alike come from different tables or passages of the source.

What was measured:
[1] = Single Ascending Dose (SAD) study, pharmacokinetics in healthy volunteers; format: in vivo, human; conditions: fasted; for AUC(0-inf) / Cmax / half-life / AUC(0-t) / concentration at 24 h / Vd/F / Tmax: human, in vivo, oral; for AUC(0-inf) / Cmax / half-life / AUC(0-t) / concentration at 24 h / Vd/F / CL/F: arithmetic mean; for AUC(0-t): read-out: AUC0-24hr; for concentration at 24 h: read-out: C24hr; for Vd/F: read-out: Vz/F; for Tmax: median
[2] = Multiple Ascending Dose (MAD) study, pharmacokinetics in healthy volunteers; format: in vivo, human; conditions: for Cmax / half-life / AUC(0-t) / concentration at 12 h / Tmax / concentration at 24 h: human, in vivo, oral; for Cmax / half-life / AUC(0-t) / concentration at 12 h / concentration at 24 h: arithmetic mean; for concentration at 12 h: read-out: C12hr; for Tmax: median; for concentration at 24 h: read-out: C24hr
[3] = test system: IFN-γ-mediated STAT1 signaling; assay: Pharmacodynamic analysis in MAD study: IFN-γ-mediated STAT1 signaling; format: in vivo, human; conditions: disease-relevant immune cell types, all doses evaluated
Protocol: (§1) Pharmacodynamic analyses were also performed during the MAD study of the Phase 1 trial to assess the inhibition of IL-6- and IFN-γ-mediated JAK/STAT signaling.

[4] = test system: IL-6-stimulated phosphorylated STAT3 (pSTAT3); assay: Pharmacodynamic analysis in MAD study: IL-6-stimulated pSTAT3; format: in vivo, human; conditions: all treatment groups
Protocol: as §1

[5] = Metabolic stability using human liver microsomes; format: in vitro ADME; conditions: 0.25 μM test compound, 2 mM NADPH, 37° C.
Protocol: Deuterated test compounds were supplied by Concert Pharmaceuticals.
A 10 μL aliquot of the 12.5 μM test compound was added to the microsomes and the mixture was pre-warmed for 10 minutes.
Data analysis was performed using Microsoft Excel Software.

[6] = Combined SAD and MAD (Phase 1) studies, safety and tolerability; format: in vivo, human
Protocol: In the combined SAD and MAD studies, a total of 77 subjects were dosed (60 received CTP-543; 17 received placebo).

[7] = single dose 8 mg as phosphate salt, n = 6
[8] = single dose 16 mg as phosphate salt, n = 6
[9] = single dose 32 mg as phosphate salt, n = 6
[10] = single dose 48 mg as phosphate salt, n = 5

For [2H]C1([2H])C([C@@H](CC#N)n2cc(-c3ncnc4[nH]ccc34)cn2)C([2H])([2H])C([2H])([2H])C1([2H])[2H] [Compound (I), (R)-3-(4-(7H-pyrrolo[2,3-d]pyrimidin-4-yl)-1H-pyrazol-1-yl)-3-(cyclopentyl-2,2,3,3,4,4,5,5-d8)propanenitrile], the AUC(0-inf) [1, 7] was 589 ng·h/mL, the Cmax [1, 7] was 118 ng/mL and the half-life [1, 7] was 3.14 h. The AUC(0-t) [1, 7] was 584 ng·h/mL, the concentration at 24 h [1, 7] was 1.02 ng/mL and the Vd/F [1, 7] was 64.1 L. For the same compound, the Tmax [1, 7] was 1.25 h, the AUC(0-inf) [1, 8] was 1350 ng·h/mL and the Cmax [1, 8] was 260 ng/mL. The half-life [1, 8] was 3.32 h, the AUC(0-t) [1, 8] was 1330 ng·h/mL and the concentration at 24 h [1, 8] was 2.77 ng/mL. For the same compound, the Vd/F [1, 8] was 61 L, the AUC(0-inf) [1, 9] was 2460 ng·h/mL and the Cmax [1, 9] was 535 ng/mL. The half-life [1, 9] was 3.52 h, the AUC(0-t) [1, 9] was 2420 ng·h/mL and the concentration at 24 h [1, 9] was 5.6 ng/mL. It also gave a Vd/F [1, 9] of 68.4 L, a Tmax [1, 9] of 1.25 h and an AUC(0-inf) [1, 10] of 4160 ng·h/mL. The Cmax [1, 10] was 853 ng/mL, the half-life [1, 10] was 3.61 h and the AUC(0-t) [1, 10] was 4100 ng·h/mL. The concentration at 24 h [1, 10] was 9.26 ng/mL, the Vd/F [1, 10] was 63.2 L and the CL/F [1, 7] was 14.92 L/h. The CL/F [1, 8] was 13.87 L/h, the CL/F [1, 9] was 13.88 L/h and the CL/F [1, 10] was 12.75 L/h. The “average systemic exposure versus published average reported exposure of 20 mg BID ruxolitinib” value ([2]; 16 mg BID of Compound (I)) was “comparable”, the Cmax ([2]; 8 mg, 8 mg BID, Day 1, n = 4) was 160 ng/mL and the half-life ([2]; 8 mg, 8 mg BID, Day 1, n = 4) was 3.77 h. The AUC(0-t) ([2]; 8 mg, 8 mg BID, Day 1, n = 4, read-out: AUCtau/AUC0-12hr) was 703 ng·h/mL, the concentration at 12 h ([2]; 8 mg, 8 mg BID, Day 1, n = 4) was 13.7 ng/mL and the Tmax ([2]; 8 mg, 8 mg BID, Day 1, n = 4) was 1 h. It also gave a Cmax ([2]; 8 mg, 8 mg BID, Day 7, n = 4) of 183 ng/mL, a half-life ([2]; 8 mg, 8 mg BID, Day 7, n = 4) of 4.2 h and an AUC(0-t) ([2]; 8 mg, 8 mg BID, Day 7, n = 4, read-out: AUCtau/AUC0-12hr) of 844 ng·h/mL. For the same compound, the concentration at 12 h ([2]; 8 mg, 8 mg BID, Day 7, n = 4) was 13.2 ng/mL, the Cmax ([2]; 8 mg, 8 mg QD, Day 1, n = 7) was 156 ng/mL and the half-life ([2]; 8 mg, 8 mg QD, Day 1, n = 7) was 3.23 h. For the same compound, the AUC(0-t) ([2]; 8 mg, 8 mg QD, Day 1, n = 7, read-out: AUCtau/AUC0-24hr) was 704 ng·h/mL, the concentration at 24 h ([2]; 8 mg, 8 mg QD, Day 1, n = 7) was 0.86 ng/mL and the Tmax ([2]; 8 mg, 8 mg QD, Day 1, n = 7) was 1 h. For the same compound, the Cmax ([2]; 8 mg, 8 mg QD, Day 7, n = 7) was 151 ng/mL, the half-life ([2]; 8 mg, 8 mg QD, Day 7, n = 7) was 3.51 h and the AUC(0-t) ([2]; 8 mg, 8 mg QD, Day 7, n = 7, read-out: AUCtau/AUC0-24hr) was 668 ng·h/mL. For the same compound, the concentration at 24 h ([2]; 8 mg, 8 mg QD, Day 7, n = 7) was 1.01 ng/mL, the Tmax ([2]; 8 mg, 8 mg QD, Day 7, n = 7) was 1 h and the Cmax ([2]; 16 mg, 16 mg BID, Day 1, n = 8) was 290 ng/mL. For the same compound, the half-life ([2]; 16 mg, 16 mg BID, Day 1, n = 8) was 2.89 h, the AUC(0-t) ([2]; 16 mg, 16 mg BID, Day 1, n = 8, read-out: AUCtau/AUC0-12hr) was 1060 ng·h/mL and the concentration at 12 h ([2]; 16 mg, 16 mg BID, Day 1, n = 8) was 15.3 ng/mL. For the same compound, the Tmax ([2]; 16 mg, 16 mg BID, Day 1, n = 8) was 1 h, the Cmax ([2]; 16 mg, 16 mg BID, Day 7, n = 8) was 288 ng/mL and the half-life ([2]; 16 mg, 16 mg BID, Day 7, n = 8) was 3.53 h. The AUC(0-t) ([2]; 16 mg, 16 mg BID, Day 7, n = 8, read-out: AUCtau/AUC0-12hr) was 1130 ng·h/mL, the concentration at 12 h ([2]; 16 mg, 16 mg BID, Day 7, n = 8) was 16.5 ng/mL and the Tmax ([2]; 16 mg, 16 mg BID, Day 7, n = 8) was 0.75 h. It also gave a Cmax ([2]; 24 mg, 24 mg QD, Day 1, n = 8) of 384 ng/mL, a half-life ([2]; 24 mg, 24 mg QD, Day 1, n = 8) of 3.14 h and an AUC(0-t) ([2]; 24 mg, 24 mg QD, Day 1, n = 8, read-out: AUCtau/AUC0-24hr) of 1670 ng·h/mL. For the same compound, the concentration at 24 h ([2]; 24 mg, 24 mg QD, Day 1, n = 8) was 2.48 ng/mL, the Tmax ([2]; 24 mg, 24 mg QD, Day 1, n = 8) was 0.5 h and the Cmax ([2]; 24 mg, 24 mg QD, Day 7, n = 8) was 310 ng/mL. For the same compound, the half-life ([2]; 24 mg, 24 mg QD, Day 7, n = 8) was 3.5 h, the AUC(0-t) ([2]; 24 mg, 24 mg QD, Day 7, n = 8, read-out: AUCtau/AUC0-24hr) was 1530 ng·h/mL and the concentration at 24 h ([2]; 24 mg, 24 mg QD, Day 7, n = 8) was 3.39 ng/mL. The Tmax ([2]; 24 mg, 24 mg QD, Day 7, n = 8) was 1 h, the Cmax ([2]; 32 mg, 32 mg QD, Day 1, n = 8) was 509 ng/mL and the half-life ([2]; 32 mg, 32 mg QD, Day 1, n = 8) was 2.86 h. For the same compound, the AUC(0-t) ([2]; 32 mg, 32 mg QD, Day 1, n = 8, read-out: AUCtau/AUC0-24hr) was 2220 ng·h/mL, the concentration at 24 h ([2]; 32 mg, 32 mg QD, Day 1, n = 8) was 2.95 ng/mL and the Tmax ([2]; 32 mg, 32 mg QD, Day 1, n = 8) was 0.75 h. It also gave a Cmax ([2]; 32 mg, 32 mg QD, Day 7, n = 8) of 492 ng/mL, an AUC(0-t) ([2]; 32 mg, 32 mg QD, Day 7, n = 8, read-out: AUCtau/AUC0-24hr) of 2100 ng·h/mL and a concentration at 24 h ([2]; 32 mg, 32 mg QD, Day 7, n = 8) of 5.12 ng/mL. The Tmax ([2]; 32 mg, 32 mg QD, Day 7, n = 8) was 0.75 h, the “accumulation with repeated dosing” value ([2]; repeated dosing, seven consecutive days) was “did not accumulate” and the “IFN-γ-mediated STAT1 signaling” value [3] was “significantly inhibited”. The “IL-6-stimulated phosphorylated STAT3 (pSTAT3)” value ([4]; MAD study) was “dose-related reduction”, the “pSTAT3 inhibition at 24 hours post-dose” value ([4]; 24 hours post-dose) was “returned to approximate baseline values” and the “t1/2 longer than the t1/2 of non-deuterated ruxolitinib” value [5] was “about 75%”. The tolerability ([6]; Phase 1 study) was “generally well tolerated”, the “cases of mild neutropenia” value ([6]; combined SAD and MAD studies) was “resolved or trended toward recovery after dosing completion” and the “most common adverse event reported” value ([6]; combined SAD and MAD studies) was “headache”. The “severe neutropenia (Grade 3 or 4)” value ([6]; combined SAD and MAD studies) was “not observed”, the “withdrawal or dose modification related to CTP-543” value ([6]; combined SAD and MAD studies) was “No withdrawal or dose modification” and the serious adverse events ([6]; combined SAD and MAD studies, 60 subjects received CTP-543) was “No serious adverse events were reported”. The absorption ([6]; combined SAD and MAD studies, oral) was “rapidly absorbed”.
